Data: ChEMBL document CHEMBL5029192, “Novel Macrocyclic LRRK2 Inhibitors for Treating Parkinson's Disease” (ACS Med Chem Lett, 2022)

Target: Leucine-rich repeat serine/threonine-protein kinase 2 (Homo sapiens, UniProt Q5S007)
Test: Inhibition of recombinant human LRRK2 using LRRKtide peptide and ATP as substrates incubated for 1 hrs by ADP-glo luminescent assay

Sequence of Leucine-rich repeat serine/threonine-protein kinase 2 (Q5S007 whole entry): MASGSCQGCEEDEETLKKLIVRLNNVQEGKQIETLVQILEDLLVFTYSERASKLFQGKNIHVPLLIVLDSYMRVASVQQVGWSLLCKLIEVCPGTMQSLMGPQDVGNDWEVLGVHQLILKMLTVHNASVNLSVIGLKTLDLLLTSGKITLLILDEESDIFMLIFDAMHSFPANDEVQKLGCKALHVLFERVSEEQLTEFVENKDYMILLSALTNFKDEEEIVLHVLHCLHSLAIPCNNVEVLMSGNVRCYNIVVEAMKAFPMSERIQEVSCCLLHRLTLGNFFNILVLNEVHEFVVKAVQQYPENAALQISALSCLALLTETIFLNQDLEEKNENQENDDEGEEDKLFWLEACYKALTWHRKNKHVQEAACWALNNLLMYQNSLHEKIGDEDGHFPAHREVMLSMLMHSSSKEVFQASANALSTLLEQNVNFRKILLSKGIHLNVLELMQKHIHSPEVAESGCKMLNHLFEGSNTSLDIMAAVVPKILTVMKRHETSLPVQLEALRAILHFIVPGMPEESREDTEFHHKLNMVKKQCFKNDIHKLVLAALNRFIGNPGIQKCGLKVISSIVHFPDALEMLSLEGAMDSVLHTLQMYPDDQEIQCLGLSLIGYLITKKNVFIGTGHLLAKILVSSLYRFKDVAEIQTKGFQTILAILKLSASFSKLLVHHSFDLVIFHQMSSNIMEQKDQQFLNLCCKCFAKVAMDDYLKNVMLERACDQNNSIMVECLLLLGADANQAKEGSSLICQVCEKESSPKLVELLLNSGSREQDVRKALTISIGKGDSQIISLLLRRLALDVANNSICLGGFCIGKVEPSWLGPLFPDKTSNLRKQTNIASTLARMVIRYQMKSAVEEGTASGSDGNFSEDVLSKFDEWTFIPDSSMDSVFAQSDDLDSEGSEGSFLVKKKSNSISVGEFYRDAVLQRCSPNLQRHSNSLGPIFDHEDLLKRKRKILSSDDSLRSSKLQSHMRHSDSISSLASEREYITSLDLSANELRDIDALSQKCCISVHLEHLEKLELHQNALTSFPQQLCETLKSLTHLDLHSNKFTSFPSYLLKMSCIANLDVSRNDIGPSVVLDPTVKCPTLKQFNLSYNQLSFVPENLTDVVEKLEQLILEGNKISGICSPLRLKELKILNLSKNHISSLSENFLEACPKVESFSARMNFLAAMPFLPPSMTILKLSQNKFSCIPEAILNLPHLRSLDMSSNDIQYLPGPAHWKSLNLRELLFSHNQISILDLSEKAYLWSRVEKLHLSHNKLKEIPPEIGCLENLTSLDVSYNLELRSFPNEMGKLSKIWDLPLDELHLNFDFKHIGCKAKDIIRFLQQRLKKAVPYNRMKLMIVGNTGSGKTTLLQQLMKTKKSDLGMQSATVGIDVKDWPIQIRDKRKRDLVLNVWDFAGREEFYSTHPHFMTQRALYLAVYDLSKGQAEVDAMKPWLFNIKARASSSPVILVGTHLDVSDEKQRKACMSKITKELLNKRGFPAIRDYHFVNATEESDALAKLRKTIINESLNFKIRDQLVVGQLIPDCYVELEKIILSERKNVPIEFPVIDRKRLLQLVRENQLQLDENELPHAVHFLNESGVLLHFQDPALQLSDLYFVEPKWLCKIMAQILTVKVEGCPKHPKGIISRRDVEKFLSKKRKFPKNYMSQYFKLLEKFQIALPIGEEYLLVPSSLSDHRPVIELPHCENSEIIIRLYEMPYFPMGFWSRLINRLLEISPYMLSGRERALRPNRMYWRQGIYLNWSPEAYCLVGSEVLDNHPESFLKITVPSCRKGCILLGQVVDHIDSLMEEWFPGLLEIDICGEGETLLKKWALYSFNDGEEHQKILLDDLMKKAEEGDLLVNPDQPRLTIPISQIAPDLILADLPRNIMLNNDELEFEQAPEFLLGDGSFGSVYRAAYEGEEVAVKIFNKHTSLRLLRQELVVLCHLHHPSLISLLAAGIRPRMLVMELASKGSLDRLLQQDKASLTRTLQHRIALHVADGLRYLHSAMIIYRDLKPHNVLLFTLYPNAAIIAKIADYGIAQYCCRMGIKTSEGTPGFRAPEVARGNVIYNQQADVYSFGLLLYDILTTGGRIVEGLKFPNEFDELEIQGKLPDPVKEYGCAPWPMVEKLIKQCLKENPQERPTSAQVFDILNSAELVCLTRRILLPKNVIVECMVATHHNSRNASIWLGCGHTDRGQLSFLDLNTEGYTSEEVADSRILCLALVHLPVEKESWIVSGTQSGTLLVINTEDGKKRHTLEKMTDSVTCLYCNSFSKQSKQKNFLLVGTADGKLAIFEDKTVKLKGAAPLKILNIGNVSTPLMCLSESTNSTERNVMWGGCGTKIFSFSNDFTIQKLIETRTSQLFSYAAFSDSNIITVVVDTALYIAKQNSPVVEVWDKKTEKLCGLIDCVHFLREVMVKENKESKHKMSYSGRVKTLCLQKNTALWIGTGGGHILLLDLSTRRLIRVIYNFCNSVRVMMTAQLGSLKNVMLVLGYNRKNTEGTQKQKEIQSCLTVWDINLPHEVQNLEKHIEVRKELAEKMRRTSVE

| SMILES | IC50 [µM] |
| --- | --- |
| O=C1NCCCOc2ccc3[nH]nc(c3c2)-c2cc(cc(N3CCN(C4COC4)CC3)c2)CO1 | < 0.01 |
| O=C1NCCCOc2ccc3[nH]nc(c3c2)-c2cc(cc(N3CCC(N4CCOCC4)CC3)c2)CO1 | < 0.01 |
| O=C1NCCCOc2ccc3[nH]nc(c3c2)-c2ccc(C3CC3)c(c2)CO1 | < 0.01 |
| O=C1NCCCOc2ccc3[nH]nc(c3c2)-c2cc(cc(N3CCC4(COC4)C3)c2)CO1 | < 0.01 |
| O=C1NCCCOc2ccc3[nH]nc(c3c2)-c2csc(n2)CCO1 | < 0.01 |
| O=C1NCCCOc2ccc3[nH]nc(c3c2)-c2cc(cc(N3CCC(N4CCCC4)CC3)c2)CO1 | < 0.01 |
